# Laboratory results as given in patent US20040138301A1, “Chemical uncouplers for the treatment of obesity” (priority 2002, published 2004).
# Assays:
# isolated mitochondria = assay: Assay (II): effect of chemical uncouplers on mitochondrial respiration using isolated mitochondria (oxygen consumption); assay type: biochemical
# Protocol: Assay (II)—The Effect of Chemical Uncouplers on Mitochondrial Respiration Using Isolated Mitochondria.
# This assay is used to investigate if the increase in glucose utilisation caused by the test compounds observed in the glucose utilisation assay is due to an increase in the respiration of the mitochondria. This is done by measuring oxygen consumption in isolated mitochondria.
# A Clark oxygen electrode is used to determine the oxygen consumption. The isolated mitochondria are added to medium containing oxygen and nutrients (e.g. Succinate) and the rate of oxygen consumptions is measured, when stabilized a small amount of ADP is added to increase the respiration and an increase in the rate of oxygen consumption is measured. When the rate of oxygen consumption again has stabilized the test compound is added and a further increase in oxygen consumption is seen. This experiment is done with and without the addition of oligomycin which is an inhibitor of the ATP-synthase. Finally, the test compound is examined without adding ADP. If the test compound stimulates the rate of oxygen consumption in all setups, it is regarded as a chemical uncoupler.
# FSK-4 cells = assay: Assay (IV): Glucose utilisation in FSK-4 cells; assay type: cell-based; details: FSK-4 cells; for EC50: glucose utilisation, 24 hours incubation, read-out: FSK4 EC50; for Emax: maximal efficacy relative to FCCP, read-out: FSK4 Emax (% of FCCP)
Structure (SMILES),Mito State-4 (isolated mitochondria),EC50 (FSK-4 cells) [nM],Emax (FSK-4 cells) [%]
"N#CC(C#N)=NNc1ccc(OC(F)(F)F)cc1 [Example 27, Carbonylcyanide p-Trifluoromethoxy-Phenylhydrazone, reference compound]",Ok,1000,100
"N#CC(C#N)=Cc1c[nH]c2ccc(Cl)cc12 [Example 30, 2-((5-Chloro-1H-Indol-3-Yl)Methylene)Malononitrile]",Ok,50000,100
"N#CC(C#N)=Cc1c(Cl)[nH]c2ccccc12 [Example 34, 2-(2-Chloro-1H-Indol-3-Ylmethylene)-Malononitrile]",Ok,400,90
"Cc1c(Br)cc(C(C)(C)C)c(O)c1C(=O)Nc1ccc([N+](=O)[O-])cc1Cl [Example 37, 3-Bromo-5-Tert-Butyl-N-(2-Chloro-4-Nitro-Phenyl)-6-Hydroxy-2-Methyl-Benzamide]",Ok,30,110
"Cc1c(Cl)cc(C(C)(C)C)c(O)c1C(=O)Nc1ccc([N+](=O)[O-])cc1C(F)(F)F [Example 50, 3-Tert-Butyl-5-Chloro-2-Hydroxy-6-Methyl-N-(4-Nitro-2-Trifluoromethyl-Phenyl)-Benzamide]",Ok,< 30,75
"Cc1cc(C(C#N)c2ccc(Cl)cc2)c(Cl)cc1NC(=O)c1c(C)c(Br)cc(C(C)(C)C)c1O (stereo not drawn) [Example 56, 3-Bromo-5-Tert-Butyl-N-{5-Chloro-4-[(4-Chloro-Phenyl)-Cyano-Methyl]-2-Methyl-Phenyl}-6-Hydroxy-2-Methyl-Benzamide]",Ok,8000,105
"Cc1c(Br)cc(C(C)(C)C)c(O)c1C(=O)Nc1ccc([N+](=O)[O-])cc1C(F)(F)F [Example 58, 3-Bromo-5-Tert-Butyl-6-Hydroxy-2-Methyl-N-(4-Nitro-2-Trifluoromethyl-Phenyl)-Benzamide]",Ok,< 30,100
"CC(=C(C#N)C#N)c1cc(C(C)(C)C)c(O)c(C(C)(C)C)c1 [Example 75, 2-[1-(3,5-Di-Tert-Butyl-4-Hydroxy-Phenyl)-Ethylidene]-Malononitrile]",Ok,700,75
"CC(C)(C)c1cc(/C=C(\C#N)c2ccc([N+](=O)[O-])cc2)cc(C(C)(C)C)c1O [Example 77, 3-(3,5-Di-Tert-Butyl-4-Hydroxy-Phenyl)-2-(4-Nitro-Phenyl)-Acrylonitrile]",Ok,1000,110
